The values that follow come from patent US9498455B2, “Cinacalcet and neuroblastic tumours” (HOSPITAL SAINT JOAN DE DEU, priority 2012, dated 2016).

In one experiment the test system is wild type SK-N-LP cells. Briefly: CASR activation by calcium after serum deprivation, wild type or pCMV-GFP SK-N-LP cells. The following applies: 3 mM CaCl2 after 16 hours serum deprivation; wild type or pCMV-GFP transfected. The format is cell-based. Here is the method:
(§1) Wild type SK-N-LP cells stably transfected with pCMV-GFP or pCMV-CASR-GFP (1×10^6) in RPMI 10% FBS were seeded in P100 plates. The medium was substituted the next day with a serum-free medium (calcium-free DMEM supplemented with 0.2% bovine albumin, 4 mM L-glutamine and 0.5 mM CaCl2). This was maintained for 16 hours before substituting it with the same medium supplemented or not supplemented with up to 3 mM CaCl2. […] In the latter cell lines, indications of cell death were detected, but the cells continued to proliferate until reaching confluence, whereas cells with overexpression of CASR completely disappeared in 5 days.

Experiment [1] deals with SK-N-LP cells with overexpression of CASR. Briefly: CASR activation by calcium after serum deprivation, SK-N-LP cells with overexpression of CASR. It counts as cell-based. As for the experimental part: as §1
In order to determine if the cell death process occurred by means of apoptosis, total proteins of wild type SK-N-LP cells (WT) and cells with overexpression of CASR (CASR) were extracted 24 and 48 hours after exposure to this model. The proteins were subjected to SDS-PAGE gel electrophoresis, transferred to a nitrocellulose membrane and incubated with specific antibodies to detect activated caspase 3 and c-PARP (Cell Signaling). Suitable secondary antibodies labeled with peroxidase were used, and it was developed with the Amersham ECL system.

In the next experiment the test system is SK-N-JD. Briefly: Cell viability (MTS) after 72 hours, SK-N-JD neuroblastoma cell line. The format is cell-based. The following applies: no unit in table, tested concentrations given in μM, read-out: IC50 (drug concentration causing the death of 50% of the cells with respect to the control). Here is the method: (§2) 5×10^3 cells of each cell line (LAN-1, SK-N-BE(2)c, LA1-55n, LA1-5s, SK-N-LP, SK-N-JD, SK-N-AS) were seeded in 96-well plates (6 replicates per condition). The initial medium (RPMI 10% FBS) was removed the next day and substituted with the same medium containing several concentrations (100 μM, 65 μM, 30 μM, 25 μM, 20 μM, 15 μM, 10 μM, 5 μM, 3 μM, 1 μM, 0.3 μM) of cinacalcet (Selleck Biochemicals) or NPS R-568 (Tocris) or equivalent amounts of DMSO (Sigma-Aldrich). Cell viability was evaluated after 72 hours by means of quantifying the percentage of viable cells by means of the Promega CellTiter 96(r) Aqueous One Solution Cell Proliferation Assay (MTS) system. It was thus observed that both drugs induced a decrease in cell viability in the 7 cell lines examined (FIG. 2), and that in 5 of said cell lines the IC50 (drug concentration causing the death of 50% of the cells with respect to the control) of cinacalcet was less than that of NPS R-568 in a statistically significant manner (Table 1). In the case of SK-N-AS and LA1-55n cell lines, the difference in the effect promoted by both drugs was not statistically significant (Table 1).

The test system of experiment [2] is Xenografts of LAN-1 cell line. Put plainly: In vivo model of neuroblastoma, LAN-1 xenografts, morphological examination. On the set-up: species or system athymic nu/nu mice. The following applies: LAN-1 xenograft, oral 100 mg/kg 6 days a week from day 12, sacrificed after 40 days. As for the experimental part:
(§3) Xenografts of LAN-1 and SK-N-LP cell lines were generated for which aliquots containing 10×10^6 cells from said cell lines were inoculated subcutaneously in 4-6 week old female athymic nu/nu mice (Charles Rivers). Starting from day 12, when the forming tumor could already be measured using Vernier calipers, oral treatment was started 6 days a week with cinacalcet 100 mg/kg (FIGS. 3C-3F) and with the carrier as a negative control (FIGS. 3A and 3B). The tumor volume was measured every 2-3 days. The mice were sacrificed after 40 days. Each tumor was weighed before being sectioned into two halves: one half was frozen in liquid nitrogen for expression analysis and the other half was fixed and embedded in paraffin for morphological examination and immunohistochemical analyses.

The test system of another experiment is SK-N-AS. Briefly: Cell viability (MTS) after 72 hours, SK-N-AS neuroblastoma cell line. It counts as cell-based. The following applies: Homo sapiens, no unit in table, tested concentrations given in μM, read-out: IC50 (drug concentration causing the death of 50% of the cells with respect to the control). Here is the method: as §2
Experiment [3] deals with Xenografts of SK-N-LP cell line. Put plainly: In vivo model of neuroblastoma, SK-N-LP xenografts, morphological examination. On the set-up: species or system athymic nu/nu mice. The following applies: SK-N-LP xenograft, oral 100 mg/kg 6 days a week from day 12, sacrificed after 40 days. As for the experimental part: as §3
The test system of another experiment is LA1-5s. Briefly: Cell viability (MTS) after 72 hours, LA1-5s neuroblastoma cell line. It counts as cell-based. The following applies: no unit in table, tested concentrations given in μM, read-out: IC50 (drug concentration causing the death of 50% of the cells with respect to the control). Here is the method:
as §2

The test system of a further experiment is SK-N-BE(2)C. Briefly: Cell viability (MTS) after 72 hours, SK-N-BE(2)c neuroblastoma cell line. It counts as cell-based. The following applies: no unit in table, tested concentrations given in μM, read-out: IC50 (drug concentration causing the death of 50% of the cells with respect to the control). As for the experimental part:
as §2

The next experiment has as its system LAN-1. Put plainly: Cell viability (MTS) after 72 hours, LAN-1 neuroblastoma cell line. The format is cell-based. As to conditions: LAN1, LAN-1, 72 hours, no unit in table, tested concentrations given in μM, read-out: IC50 (drug concentration causing the death of 50% of the cells with respect to the control). Here is the method:
as §2

In the next experiment the test system is LA1-55n. Briefly: Cell viability (MTS) after 72 hours, LA1-55n neuroblastoma cell line. The format is cell-based. As to conditions: no unit in table, tested concentrations given in μM, read-out: IC50 (drug concentration causing the death of 50% of the cells with respect to the control). Here is the method: as §2
A further experiment has as its system SK-N-LP. Put plainly: Cell viability (MTS) after 72 hours, SK-N-LP neuroblastoma cell line. It counts as cell-based. The following applies: no unit in table, tested concentrations given in μM, read-out: IC50 (drug concentration causing the death of 50% of the cells with respect to the control). As for the experimental part:
as §2

On to `[Ca+2].[Cl-].[Cl-]` [CaCl2], for which the figures for the “Cell death (morphology)” value (in the experiment on wild type SK-N-LP cells; in experiment [1] (3 mM CaCl2 after 16 hours serum deprivation)) were “hardly appreciable” and “suffered cell death”, respectively. For the same molecule, the “Caspase 3 activation and PARP cleavage (Western blot)” value in experiment [1] (24 and 48 hours after exposure to 3 mM CaCl2 model) is “accompanied by caspase 3 activation and PARP cleavage”.
As to `C[C@@H](NCCCc1cccc(C(F)(F)F)c1)c1cccc2ccccc12` [Cinacalcet, cinacalcet], the IC50 is 10.9 µM in the experiment with SK-N-JD; 10.3 µM with SK-N-AS; 16.7 µM in the experiment with LA1-5s; 10.7 µM in the experiment with SK-N-BE(2)C; 17.2 µM in the experiment with LAN-1; 10.5 µM with LA1-55n. In addition, the IC50 with SK-N-LP is 10.3 µM. Moreover, the “Morphological analysis of the xenografts: cell death” value in experiment [2] and in experiment [3] was “large areas with necrosis and/or apoptosis” throughout. Besides, the “Morphological analysis of the xenografts: differentiation” value in [2] and in [3] was “morphological signs of differentiation in viable cells” throughout.
With `COc1cccc([C@@H](C)NCCCc2ccccc2Cl)c1` [NPS R-568], the IC50 in the experiment on SK-N-JD came to 25.8 µM; in the experiment on SK-N-AS it was 15.1 µM; in the experiment on LA1-5s, 34.5 µM; with SK-N-BE(2)C, 16.6 µM; in the experiment with LAN-1, 24.8 µM; in the experiment with LA1-55n, 11.4 µM. The IC50 in the experiment on SK-N-LP came out at 22.4 µM.
